Values of other authors as cited in patent publication EP3933036B1, “PROCESS FOR 7-BETA-HYDROXYLATION OF BILE ACID DERIVATIVES” (MICROMUN Institut für Mikrobiologische Forschung GmbH, priority 2020, dated 2022).

conditions: at 298 K

octanol/water partition coefficient (KOW)	Compound
2	C[S+](C)[O-] [DMSO]
11	CCOC(C)=O [ethyl acetate]

Compound	octanol/water partition coefficient (KOW)
CC#N [acetonitrile]	2
